Read-outs that look alike come from different tables or passages of the source.
Experiments:
Src SH2 = target: T1, Src SH2 (Homo sapiens, UniProt P12931); assay: Inhibition of 125I-phosphopeptide binding to immobilized Src SH2; details: competitive 125I-phosphopeptide displacement, GST-Src SH2 fusion protein, pH 7.5, room temperature, 20 minutes
T1 construct: glutathione-S-transferase(GST)-Src SH2 fusion protein
Method: The binding affinities of compounds of the present invention to Src SH2 was determined using a competitive radiolabeled phosphopeptide displacement assay.
Binding was performed at room temperature for 20 minutes while continuously inverting the plate. […] Results are expressed as IC50 values in Table 1 below.

Abl SH2 = target: T2, Abl SH2 (Homo sapiens, UniProt P00519); assay: Inhibition of 125I-phosphopeptide binding to immobilized Abl SH2
T2 construct: glutathione-S-transferase(GST)-Abl SH2 fusion protein
T2 sequence (P00519 127-217 limits assumed): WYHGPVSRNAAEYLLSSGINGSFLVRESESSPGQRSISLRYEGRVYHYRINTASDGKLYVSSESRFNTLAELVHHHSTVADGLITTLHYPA
Method: The binding affinities of compounds of the present invention to Abl SH2 was determined using a competitive radiolabeled phosphopeptide displacement assay. […] Binding was performed at room temperature for 20 minutes while continuously inverting the plate.

[1] = IC50, Abl SH2 Binding, competitive 125I-phosphopeptide displacement, GST-Abl SH2 fusion protein, pH 7.5, room temperature, 20 minutes
[2] = read-out: IC50, SRC SH2 Binding
[3] = competitive 125I-phosphopeptide displacement, GST-Abl SH2 fusion protein, pH 7.5, room temperature, 20 minutes; read-out: IC50, Abl SH2 Binding

T1 sequence (P12931 151-248 limits assumed): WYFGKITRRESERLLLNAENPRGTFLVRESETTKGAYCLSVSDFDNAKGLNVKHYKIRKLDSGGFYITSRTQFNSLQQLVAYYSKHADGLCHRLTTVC

SMILES | IC50 (Src SH2; IC50, SRC SH2 Binding) [µM] | IC50 (Abl SH2; [1]) [µM] | other results
CC(=O)N[C@@H](Cc1ccc(OP(=O)(O)O)cc1)C(=O)NC(C)c1ccc(OCC2CCCCC2)c(CC(N)=O)c1 (mixture of isomers) [Example 65, (S)-Phosphoric acid mono-(4-{2-acetylamino-2-[(RS)-1-(3-carbamoylmethyl-4-cyclohexylmethoxy-phenyl)-ethylcarbamoyl]-ethyl}-phenyl) ester] | 9.2 | 24 | 
CN(CCCC1CCCCC1)C(=O)[C@H](CCC(=O)O)NC(=O)[C@H](Cc1ccc(OP(=O)(O)O)cc1)NS(=O)(=O)N(C)C [Example 60, 5-[(3-cyclohexylpropyl)methylamino]-4-[[2-[[(dimethylamino)-sulfonyl]amino]-1-oxo-3-[4-(phosphonooxy)phenyl]propyl]amino]-5-oxo-pentanoic acid] | 1.9 | 9.7 | 
CC(=O)N[C@@H](Cc1ccc(P(=O)(O)O)cc1)C(=O)NC(C)c1ccc(OCC2CCCCC2)c(C(N)=O)c1 (mixture of isomers) [Example 73, (4-{(S)-2-Acetylamino-2-[(RS)-1-(3-carbamoyl-4-cyclohexylmethoxy-phenyl)-ethylcarbamoyl]-ethyl}-phenyl)-phosphonic acid] |  |  | IC50 (Src SH2; [2]): 8.6 µM; IC50 (Abl SH2; [3]): 26 µM
CCCC(NC(=O)[C@H](Cc1ccc(OP(=O)(O)O)cc1)NC(C)=O)c1ccc(OCC2CCCCC2)c(C(N)=O)c1 (mixture of isomers) [Example 69, Phosphoric acid mono-(4-{(S)-2-acetylamino-2-[(RS)-1-(3-carbamoyl-4-cyclohexylmethoxy-phenyl)-butylcarbamoyl]-ethyl}-phenyl) ester] | 2.1 | 7.4 | 
CCc1ccccc1COc1ccc(CNC(=O)[C@H](Cc2ccc(OP(=O)(O)O)cc2)NC(C)=O)cc1C(N)=O [Example 72, (S)-Phosphoric acid mono-(4-{2-acetylamino-2-[3-carbamoyl-4-(2-ethyl-benzyloxy)-benzylcarbamoyl]-ethyl}-phenyl) ester] | 6.2 | 28 | 
CC(=O)N[C@@H](Cc1ccc(OP(=O)(O)O)cc1)C(=O)NCc1ccc(OC(C)CC2CCCCC2)c(C(N)=O)c1 (mixture of isomers) [Example 66, Phosphoric acid mono-(4-{(S)-2-acetylamino-2-[3-carbamoyl-4-(2-cyclohexyl-(RS)-1-methyl-ethoxy)-benzylcarbamoyl]-ethyl}-phenyl) ester] | 3.8 | 11 | 
CN(CCCC1CCCCC1)C(=O)[C@H](CCC(=O)O)NC(=O)N(CC(=O)O)Cc1ccc(OP(=O)(O)O)cc1 [Example 35, (S)-4-[3-carboxymethyl-3-(4-phosphonooxy-benzyl)-ureido]-4-[(3-cyclohexyl-propyl)-methyl-carbamoyl]-butyric acid] |  |  | IC50 (Abl SH2; read-out: IC50, Abl SH2 Binding; competitive 125I-phosphopeptide displacement, GST-Abl SH2 fusion protein, pH 7.5, room temperature, 20 minutes): > 100 µM
CC(=O)N[C@@H](Cc1ccc(OP(=O)(O)O)cc1)C(=O)NCc1ccc(OCC2CCCCC2)c(C(=O)NO)c1 [Example 70, (S)-Phosphoric acid mono-{4-[2-acetylamino-2-(4-cyclohexylmethoxy-3-hydroxycarbamoyl-benzylcarbamoyl)-ethyl]-phenyl} ester] | 24 | 16 | 
NC(=O)c1cc(CNC(=O)Nc2ccc(OP(=O)(O)O)cc2)ccc1OCC1CCCCC1 [Example 74, Phosphoric acid mono-{4-[3-(3-carbamoyl-4-cyclohexylmethoxy-benzyl)-ureido]-phenyl} ester] | 20 | > 100 | 
CC(=O)N[C@@H](Cc1ccc(OP(=O)(O)O)cc1)C(=O)NC(Cc1ccccc1)c1ccc(OCC2CCCCC2)c(C(N)=O)c1 (mixture of isomers) [Example 67, Phosphoric acid mono-(4{(S)-2-acetylamino-2-[(RS)-1-(3-carbamoyl-4-cyclohexylmethoxy-phenyl)-2-phenyl-ethylcarbamoyl]-ethyl}-phenyl) ester] | 1 | 6 | 
CC(=O)N[C@@H](Cc1ccc(OP(=O)(O)O)cc1)C(=O)N[C@H](C(=O)NCCCc1ccccc1)C(C)O (stereo partly drawn) [Example 58, [S-(R*,R*)]-Phosphoric acid mono-(4-{2-acetylamino-2-[2-hydroxy-1-(3-phenyl-propylcarbamoyl)-propylcarbamoyl]-ethyl}-phenyl) ester] | 21 | ~60 | 
CC(=O)N[C@@H](Cc1ccc(C(F)(F)P(=O)(O)O)cc1)C(=O)NC(C)c1ccc(OCC2CCCCC2)c(C(N)=O)c1 (single isomer, unassigned) [Example 63b, [S-(R*,R*)]- or [S-(R*,S*)]-[(4-{2-Acetylamino-2-[1-(3-carbamoyl-4-cyclohexylmethoxy-phenyl)-ethylcarbamoyl]-ethyl}-phenyl)-difluoro-methyl]-phosphonic acid] |  |  | IC50 (Src SH2; [2]): 29 µM; IC50 (Abl SH2; [3]): 59 µM
CC(=O)N[C@@H](Cc1ccc(OP(=O)(O)O)cc1)C(=O)N[C@@H](CCC(=O)O)C(=O)NCCCc1cccc(OCC(N)=O)c1 [Example 24, [S-(R*,R*)]-4-[2-Acetylamino-3-(4-phosphonooxy-phenyl)-propionylamino]-4-[3-(3-carbamoylmethoxy-phenyl)-propylcarbamoyl]-butyric acid] | 7.2 | 36 | 
CC(=O)N[C@@H](Cc1ccc(OP(=O)(O)O)cc1)C(=O)NC(C)c1ccc(OC(C)CC2CCCCC2)c(C(N)=O)c1 (single isomer, unassigned) [Example 64b, Phosphoric acid mono-[4-(2-acetylamino-2-{1-[3-carbamoyl-4-(2-cyclohexyl-1-methyl-ethoxy)-phenyl]-ethylcarbamoyl}-ethyl)-phenyl] ester] | 11 | 14 | 
CC(NC(=O)Nc1cccc2cc(OP(=O)(O)O)ccc12)c1ccc(OCC2CCCCC2)c(C(N)=O)c1 (racemic) [Example 75, (+/-)-Phosphoric acid mono-(5-{3-[1-(3-carbamoyl-4-cyclohexylmethoxy-phenyl)-ethyl]-ureido}-naphthalen-2-yl) ester] | 7.2 | ~60 | 
CC(=O)N[C@@H](Cc1ccc(OP(=O)(O)O)cc1)C(=O)N[C@@H](C)C(=O)N(CCCCC(=O)O)CCCc1ccccc1 [Example 27, [S-(R*,R*)]-5-[{2-[2-Acetylamino-3-(4-phosphonooxy-phenyl)-propionylamino]-propionyl}-(3-phenyl-propyl)-amino]-pentanoic acid] | 8 |  | 
CCC(C)CCCNC(=O)[C@H](CCC(=O)O)NC(=O)[C@H](Cc1ccc(OP(=O)(O)O)cc1)NC(C)=O (stereo partly drawn) [Example 38, [S-(R*,R*)]-4-[2-Acetylamino-3-(4-phosphonooxy-phenyl)-propionylamino]-4-(4-methyl-hexylcarbamoyl)-butyric acid] | 4.1 |  | 
CC(=O)N[C@@H](Cc1ccc(OP(=O)(O)O)cc1)C(=O)N[C@@H](CCC(=O)O)C(=O)N(C)[C@@H](C)Cc1ccccc1 [Example 17, 4-[(S)-2-Acetylamino-3-(4-phosphonooxy-phenyl)-(S)-propionylamino]-4-[methyl-((S)-1-methyl-2-phenylethyl)-carbamoyl]-butyric acid] | 3.2 |  | 
CC(=O)N[C@@H](Cc1ccc(OP(=O)(O)O)cc1)C(=O)NCc1ccc(OCc2cc(C)cc(C)c2)c(C(N)=O)c1 [Example 50, (S)-Phosphoric acid mono-(4-{2-acetylamino-2-[3-carbamoyl-4-(3,5-dimethyl-benzyloxy)-benzylcarbamoyl]-ethyl}-phenyl) ester] | 2.5 |  | 
CC(=O)N[C@@H](Cc1ccc(OP(=O)(O)O)cc1)C(=O)N[C@@H](CCC(=O)O)C(=O)NCc1cccc2ccccc12 [Example 15, [S-(R*,R*)]-4-[2-Acetylamino-3-(4-phosphonooxy-phenyl)-propionylamino]-4-[(naphthalen-1-ylmethyl)-carbamoyl]-butyric acid] | 7 |  | 
CC(=O)N[C@@H](Cc1ccc(OP(=O)(O)O)cc1)C(=O)N[C@@H](CCC(=O)O)C(=O)N(C)[C@@H](C)CC1CCCCC1 [Example 3] | 2.3 |  | 
CNC(=O)N[C@@H](Cc1ccc(OP(=O)(O)O)cc1)C(=O)N[C@@H](CCC(=O)O)C(=O)N(C)CCCC1CCCCC1 [Example 7, [S-(R*,R*)]-4-[(3-Cyclohexyl-propyl)-methyl-carbamoyl]-4-[2-(3-methyl-ureido)-3-(4-phosphonooxy-phenyl)-propionylamino]-butyric acid] | 2 |  | 
CC(=O)N[C@@H](Cc1ccc(OP(=O)(O)O)cc1)C(=O)N[C@@H](CCC(=O)O)C(=O)NCCc1ccc(C)cc1 [Example 22, [S-(R*,R*)]-4-[2-Acetylamino-3-(4-phosphonooxy-phenyl)-propionylamino]-4-(2-p-tolyl-ethylcarbamoyl)-butyric acid] | 8.3 |  | 
CC(=O)N[C@@H](Cc1ccc(OP(=O)(O)O)cc1)C(=O)N[C@@H](CCC(=O)O)C(=O)NCCc1cccc2c1CCCC2 [Example 13, [S-(R* ,R*)]-4-[2-Acetylamino-3-(4-phosphonooxy-phenyl)-propionylamino]-4-[2-(5,6,7,8-tetrahydro-naphthalen-1-yl)-ethylcarbamoyl]-butyric acid] | 4.4 |  | 
NC(=O)c1cc(CNC(=O)c2ccc(C(F)(F)P(=O)(O)O)cc2)ccc1OCC1CCCCC1 [Example 45, [4-(3-Carbamoyl-4-cyclohexylmethoxy-benzylcarbamoyl)-phenyl]-difluoro-methyl-phosphonic acid] |  |  | IC50 (Src SH2; [2]): ~50 µM

Reference: US5922697A, “Compounds, compositions and methods for inhibiting the binding of proteins containing an SH2 domain to cognate phosphorylated proteins” (Warner-Lambert Company, priority 1998, dated 1999)
